Test results from patent US20200024278A1, “COMPOSITION COMPRISING ANTIBIOTIC COMPOUND AND AN HETEROCYCLIC COMPOUND AND THEIR USE IN PREVENTING OR TREATING BACTERIAL INFECTIONS” (MUTABILIS, priority 2016, published 2020).
Where two headings read alike, the source gives them in different places.

Key:
Assay in all cases: MIC, broth microdilution (CLSI), substance alone or ATB combined with compound at 4 or 8 μg/mL
PAE UFR90 = type: cell-based, P. aeruginosa; conditions: PAE UFR90
Procedure, shortened: (§1)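 Broth microdilution; ca-MHB; 5·10^5 CFU/mL; 35° C, 16-20 h; compound alone or fixed 4/8 μg/mL with antibiotic series; endpoint = no visible growth.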

PAE UFR48 = type: cell-based, P. aeruginosa; conditions: PAE UFR48
Procedure, shortened: as §1

PAE 105250 = type: cell-based, P. aeruginosa; conditions: PAE 105250
Procedure, shortened: as §1

ECL P99 = type: cell-based, E. cloacae; conditions: ECL P99; for MIC: Enterobacter cloacae
Procedure, shortened: as §1

SPN 49619 = type: cell-based, S. pneumoniae; conditions: SPN 49619
Procedure, shortened: as §1

SAU 29213 = type: cell-based, S. aureus; conditions: SAU 29213
Procedure, shortened: as §1

[1] = Pseudomonas aeruginosa, antibiotic alone, read-out: MIC ATB alone

CO/N=C(\C(=O)N[C@@H]1C(=O)N2C(C(=O)O)=C(COC(N)=O)CS[C@H]12)c1ccco1 [FUR, Cefuroxime, reference compound]
<0.031 µg/mL: MIC ATB combined with Example 1 @8 μg/ml (PAE UFR90; with Example 1 @8 μg/ml) | MIC ATB combined with Example 1 @8 μg/ml (PAE UFR90; with Example 1 at 8 μg/ml) | MIC ATB combined with Example 1 @8 μg/ml (PAE UFR48; with Example 1 @8 μg/ml) | MIC ATB combined with Example 1 @8 μg/ml (PAE UFR48; with Example 1 at 8 μg/ml) | MIC ATB combined with Example 1 @8 μg/ml (PAE 105250; with Example 1 @8 μg/ml) | MIC ATB combined with Example 1 @8 μg/ml (PAE 105250; with Example 1 at 8 μg/ml) | MIC ATB combined with Example 9 @4 μg/ml (ECL P99; with Example 9 @4 μg/ml) | MIC ATB combined with Example 9 @4 μg/ml (ECL P99; with Example 9 at 4 μg/ml) | MIC ATB combined with Example 11 @8 μg/ml (ECL P99; with Example 11 at 8 μg/ml) | MIC ATB combined with Example 12 @8 μg/ml (ECL P99; with Example 12 at 8 μg/ml) | MIC ATB combined with Example 14 @8 μg/ml (ECL P99; with Example 14 at 8 μg/ml) | MIC ATB combined with Example 15 @4 μgml (ECL P99; with Example 15 at 4 μg/ml) | MIC ATB combined with Example 16 @4 μg/ml (ECL P99; with Example 16 at 4 μg/ml) | MIC ATB combined with Example 12 @8 μg/ml (SPN 49619; with Example 12 at 8 μg/ml) | MIC ATB combined with Example 14 @8 μg/ml (SPN 49619; with Example 14 at 8 μg/ml) | MIC ATB combined with Example 15 @4 μgml (SPN 49619; with Example 15 at 4 μg/ml) | MIC ATB combined with Example 16 @4 μg/ml (SPN 49619; with Example 16 at 4 μg/ml) | MIC ATB combined with Example 9 @4 μg/ml (SAU 29213; with Example 9 @4 μg/ml) | MIC ATB combined with Example 9 @4 μg/ml (SAU 29213; with Example 9 at 4 μg/ml) | MIC ATB combined with Example 11 @8 μg/ml (SAU 29213; with Example 11 at 8 μg/ml) | MIC ATB combined with Example 12 @8 μg/ml (SAU 29213; with Example 12 at 8 μg/ml)
0.25 µg/mL: MIC ATB combined with Example 1 @8 μg/ml (SPN 49619; with Example 1 @8 μg/ml) | MIC ATB combined with Example 1 @8 μg/ml (SPN 49619; with Example 1 at 8 μg/ml) | MIC ATB combined with Example 7 @8 μgml (SPN 49619; with Example 7 at 8 μg/ml) | MIC ATB combined with Example 13 @8 μg/ml (SPN 49619; with Example 13 at 8 μg/ml) | MIC (SPN 49619; Streptococcus pneumoniae, antibiotic alone, read-out: MIC ATB alone)
> 32 µg/mL: MIC (PAE UFR90; [1]) | MIC (PAE UFR48; [1])
<=0.031 μg/mL: MIC ATB combined with Example 1 @8 μg/ml (ECL P99; with Example 1 @8 μg/ml) | MIC ATB combined with Example 1 @8 μg/ml (ECL P99; with Example 1 at 8 μg/ml) | MIC ATB combined with Example 9 @4 μg/ml (SPN 49619; with Example 9 @4 μg/ml) | MIC ATB combined with Example 9 @4 μg/ml (SPN 49619; with Example 9 at 4 μg/ml)
1 µg/mL: MIC ATB combined with Example 1 @8 μg/ml (SAU 29213; with Example 1 @8 μg/ml) | MIC ATB combined with Example 1 @8 μg/ml (SAU 29213; with Example 1 at 8 μg/ml) | MIC ATB combined with Example 7 @8 μgml (SAU 29213; with Example 7 at 8 μg/ml) | MIC ATB combined with Example 13 @8 μg/ml (SAU 29213; with Example 13 at 8 μg/ml)
>32 µg/mL: MIC ATB combined with Example 7 @8 μgml (PAE UFR90; with Example 7 at 8 μg/ml) | MIC ATB combined with Example 9 @4 μg/ml (PAE UFR90; with Example 9 @4 μg/ml) | MIC ATB combined with Example 9 @4 μg/ml (PAE UFR90; with Example 9 at 4 μg/ml) | MIC ATB combined with Example 11 @8 μg/ml (PAE UFR90; with Example 11 at 8 μg/ml) | MIC ATB combined with Example 12 @8 μg/ml (PAE UFR90; with Example 12 at 8 μg/ml) | MIC ATB combined with Example 13 @8 μg/ml (PAE UFR90; with Example 13 at 8 μg/ml) | MIC ATB combined with Example 14 @8 μg/ml (PAE UFR90; with Example 14 at 8 μg/ml) | MIC ATB combined with Example 15 @4 μgml (PAE UFR90; with Example 15 at 4 μg/ml) | MIC ATB combined with Example 16 @4 μg/ml (PAE UFR90; with Example 16 at 4 μg/ml) | MIC ATB combined with Example 7 @8 μgml (PAE UFR48; with Example 7 at 8 μg/ml) | MIC ATB combined with Example 9 @4 μg/ml (PAE UFR48; with Example 9 @4 μg/ml) | MIC ATB combined with Example 9 @4 μg/ml (PAE UFR48; with Example 9 at 4 μg/ml) | MIC ATB combined with Example 11 @8 μg/ml (PAE UFR48; with Example 11 at 8 μg/ml) | MIC ATB combined with Example 12 @8 μg/ml (PAE UFR48; with Example 12 at 8 μg/ml) | MIC ATB combined with Example 13 @8 μg/ml (PAE UFR48; with Example 13 at 8 μg/ml) | MIC ATB combined with Example 14 @8 μg/ml (PAE UFR48; with Example 14 at 8 μg/ml) | MIC ATB combined with Example 15 @4 μgml (PAE UFR48; with Example 15 at 4 μg/ml) | MIC ATB combined with Example 16 @4 μg/ml (PAE UFR48; with Example 16 at 4 μg/ml) | MIC ATB combined with Example 7 @8 μgml (PAE 105250; with Example 7 at 8 μg/ml) | MIC ATB combined with Example 9 @4 μg/ml (PAE 105250; with Example 9 @4 μg/ml) | MIC ATB combined with Example 9 @4 μg/ml (PAE 105250; with Example 9 at 4 μg/ml) | MIC ATB combined with Example 11 @8 μg/ml (PAE 105250; with Example 11 at 8 μg/ml) | MIC ATB combined with Example 12 @8 μg/ml (PAE 105250; with Example 12 at 8 μg/ml) | MIC ATB combined with Example 13 @8 μg/ml (PAE 105250; with Example 13 at 8 μg/ml) | MIC ATB combined with Example 14 @8 μg/ml (PAE 105250; with Example 14 at 8 μg/ml) | MIC ATB combined with Example 15 @4 μgml (PAE 105250; with Example 15 at 4 μg/ml) | MIC ATB combined with Example 16 @4 μg/ml (PAE 105250; with Example 16 at 4 μg/ml) | MIC ATB combined with Example 7 @8 μgml (ECL P99; with Example 7 at 8 μg/ml)
16 µg/mL: MIC ATB combined with Example 13 @8 μg/ml (ECL P99; with Example 13 at 8 μg/ml)
> 512 µg/mL: MIC (PAE 105250; [1]) | MIC (ECL P99; antibiotic alone, read-out: MIC ATB alone) | MIC (ECL P99; substance alone, read-out: MIC)
0.063 µg/mL: MIC ATB combined with Example 11 @8 μg/ml (SPN 49619; with Example 11 at 8 μg/ml)
